Test results: patent US10800791B2, “Triazole ACC inhibitors and uses thereof” (Gilead Apollo, LLC, priority 2015, dated 2020)
≈ marks a conversion by molar mass, not a printed value. Where two headings read alike, the source gives them in different places.

Key:
human (hACC2) = human (hACC2) (Homo sapiens, UniProt O00763); test: In vitro ACC inhibition assay (ADP-Glo), hACC2; assay type: biochemical; details: 5 nM ACC2, 20 μM ATP, 20 μM acetyl-CoA
Procedure: The detailed procedure is as follows. […] 10 μL ADP glo reagent was added. […] 20 μL kinase detection reagent was added.

C. krusei = test: Antifungal Activity Assay (broth microtiter MIC), C. krusei; assay type: cell-based, Candida krusei; details: Pichia kudriavzevii, ATCC6258, 48 h
Outline: (§1)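 CLSI M27-A3 microdilution; RPMI 1640+MOPS; 2.5×10^3 CFU/mL final inoculum; cultures from Sabouraud dextrose agar, 35° C overnight; compound working solution 128 μg/mL from 1 mg/mL DMSO stock; visual MIC at 48 h vs growth control.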

C. parapsilosis = test: Antifungal Activity Assay (broth microtiter MIC), C. parapsilosis; assay type: cell-based, Candida parapsilosis; details: Lodderomyces parapsilosis, ATCC22019, 48 h
Outline: as §1

Botrtyis cinerea (Bc) = test: Growth inhibition assay of fungal pathogens, Bc; assay type: cell-based; details: 48 h
Outline: (§2)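 Percent inhibition derived at 48 hours from OD600 and visual scores versus 2% DMSO control, with media+DMSO blank as background. Spore inocula in 17% V8 medium were sized from 48 h growth curves; compounds tested at final 50/10/2 or 2/0.4/0.08 ppm.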

[1] = test system: Fusarium moniliforme (Fm); test: Growth inhibition assay of fungal pathogens, Fm; assay type: cell-based; details: for IC90: Fusarium verticillioides, 48 h, read-out: Concentration at 90% Inhibition Fm
Outline: as §2

[2] = test system: Fusarium virguliforme (Fv); test: Growth inhibition assay of fungal pathogens, Fv; assay type: cell-based; details: 48 h
Outline: as §2

[3] = test system: Phytophthora capsici (Pc); test: Growth inhibition assay of fungal pathogens, Pc; assay type: cell-based; details: 48 h
Outline: as §2

Rhizoctonia solani (Rs) = test: Growth inhibition assay of fungal pathogens, Rs; assay type: cell-based; details: 48 h
Septoria tritici (St) = test: Growth inhibition assay of fungal pathogens, St; assay type: cell-based; details: Zymoseptoria tritici, 48 h
Outline: as §2

fungal (fACC2) = fungal (fACC2) (UniProt Q00955); details: read-out: fACC2 (in vitro ACC2 Inhibition Assay, IC50), ADP-Glo, 5 nM ACC2, 20 μM ATP, 20 μM acetyl-CoA
[4] = read-out: MIC, C. krusei ATCC 6258, Table 3a, 3 replicates, MIC recorded at 48 h
[5] = read-out: MIC, C. krusei ATCC 6258, Table 3b (additional results), 3 replicates, MIC recorded at 48 h
[6] = read-out: MIC, C. parapsilosis ATCC 22019, Table 3a, 3 replicates, MIC recorded at 48 h
[7] = read-out: MIC, C. parapsilosis ATCC 22019, Table 3b (additional results), 3 replicates, MIC recorded at 48 h
[8] = read-out: Concentration at 90% Inhibition Bc, Botrtyis cinerea, growth inhibition at 48 hours vs 2% DMSO control
[9] = read-out: Concentration at 90% Inhibition Bc, Botrtyis cinerea, growth inhibition vs 2% DMSO control at 48 hours
[10] = Fusarium moniliforme, growth inhibition at 48 hours vs 2% DMSO control
[11] = read-out: Concentration at 90% Inhibition Fv, Fusarium virguliforme, growth inhibition at 48 hours vs 2% DMSO control
[12] = read-out: Concentration at 90% Inhibition Fv, Fusarium virguliforme, growth inhibition vs 2% DMSO control at 48 hours
[13] = read-out: Concentration at 90% Inhibition Pc, Phytophthora capsici, growth inhibition at 48 hours vs 2% DMSO control
[14] = read-out: Concentration at 90% Inhibition Pc, Phytophthora capsici, growth inhibition vs 2% DMSO control at 48 hours
[15] = read-out: Concentration at 90% Inhibition Rs, Rhizoctonia solani, mycelial plugs, growth inhibition at 48 hours vs 2% DMSO control
[16] = read-out: Concentration at 90% Inhibition Rs, Rhizoctonia solani, mycelial plugs, growth inhibition vs 2% DMSO control at 48 hours
[17] = read-out: Concentration at 90% Inhibition St, Septoria tritici, growth inhibition at 48 hours vs 2% DMSO control
[18] = read-out: Concentration at 90% Inhibition St, Septoria tritici, growth inhibition vs 2% DMSO control at 48 hours

human (hACC2), sequence (O00763 whole entry): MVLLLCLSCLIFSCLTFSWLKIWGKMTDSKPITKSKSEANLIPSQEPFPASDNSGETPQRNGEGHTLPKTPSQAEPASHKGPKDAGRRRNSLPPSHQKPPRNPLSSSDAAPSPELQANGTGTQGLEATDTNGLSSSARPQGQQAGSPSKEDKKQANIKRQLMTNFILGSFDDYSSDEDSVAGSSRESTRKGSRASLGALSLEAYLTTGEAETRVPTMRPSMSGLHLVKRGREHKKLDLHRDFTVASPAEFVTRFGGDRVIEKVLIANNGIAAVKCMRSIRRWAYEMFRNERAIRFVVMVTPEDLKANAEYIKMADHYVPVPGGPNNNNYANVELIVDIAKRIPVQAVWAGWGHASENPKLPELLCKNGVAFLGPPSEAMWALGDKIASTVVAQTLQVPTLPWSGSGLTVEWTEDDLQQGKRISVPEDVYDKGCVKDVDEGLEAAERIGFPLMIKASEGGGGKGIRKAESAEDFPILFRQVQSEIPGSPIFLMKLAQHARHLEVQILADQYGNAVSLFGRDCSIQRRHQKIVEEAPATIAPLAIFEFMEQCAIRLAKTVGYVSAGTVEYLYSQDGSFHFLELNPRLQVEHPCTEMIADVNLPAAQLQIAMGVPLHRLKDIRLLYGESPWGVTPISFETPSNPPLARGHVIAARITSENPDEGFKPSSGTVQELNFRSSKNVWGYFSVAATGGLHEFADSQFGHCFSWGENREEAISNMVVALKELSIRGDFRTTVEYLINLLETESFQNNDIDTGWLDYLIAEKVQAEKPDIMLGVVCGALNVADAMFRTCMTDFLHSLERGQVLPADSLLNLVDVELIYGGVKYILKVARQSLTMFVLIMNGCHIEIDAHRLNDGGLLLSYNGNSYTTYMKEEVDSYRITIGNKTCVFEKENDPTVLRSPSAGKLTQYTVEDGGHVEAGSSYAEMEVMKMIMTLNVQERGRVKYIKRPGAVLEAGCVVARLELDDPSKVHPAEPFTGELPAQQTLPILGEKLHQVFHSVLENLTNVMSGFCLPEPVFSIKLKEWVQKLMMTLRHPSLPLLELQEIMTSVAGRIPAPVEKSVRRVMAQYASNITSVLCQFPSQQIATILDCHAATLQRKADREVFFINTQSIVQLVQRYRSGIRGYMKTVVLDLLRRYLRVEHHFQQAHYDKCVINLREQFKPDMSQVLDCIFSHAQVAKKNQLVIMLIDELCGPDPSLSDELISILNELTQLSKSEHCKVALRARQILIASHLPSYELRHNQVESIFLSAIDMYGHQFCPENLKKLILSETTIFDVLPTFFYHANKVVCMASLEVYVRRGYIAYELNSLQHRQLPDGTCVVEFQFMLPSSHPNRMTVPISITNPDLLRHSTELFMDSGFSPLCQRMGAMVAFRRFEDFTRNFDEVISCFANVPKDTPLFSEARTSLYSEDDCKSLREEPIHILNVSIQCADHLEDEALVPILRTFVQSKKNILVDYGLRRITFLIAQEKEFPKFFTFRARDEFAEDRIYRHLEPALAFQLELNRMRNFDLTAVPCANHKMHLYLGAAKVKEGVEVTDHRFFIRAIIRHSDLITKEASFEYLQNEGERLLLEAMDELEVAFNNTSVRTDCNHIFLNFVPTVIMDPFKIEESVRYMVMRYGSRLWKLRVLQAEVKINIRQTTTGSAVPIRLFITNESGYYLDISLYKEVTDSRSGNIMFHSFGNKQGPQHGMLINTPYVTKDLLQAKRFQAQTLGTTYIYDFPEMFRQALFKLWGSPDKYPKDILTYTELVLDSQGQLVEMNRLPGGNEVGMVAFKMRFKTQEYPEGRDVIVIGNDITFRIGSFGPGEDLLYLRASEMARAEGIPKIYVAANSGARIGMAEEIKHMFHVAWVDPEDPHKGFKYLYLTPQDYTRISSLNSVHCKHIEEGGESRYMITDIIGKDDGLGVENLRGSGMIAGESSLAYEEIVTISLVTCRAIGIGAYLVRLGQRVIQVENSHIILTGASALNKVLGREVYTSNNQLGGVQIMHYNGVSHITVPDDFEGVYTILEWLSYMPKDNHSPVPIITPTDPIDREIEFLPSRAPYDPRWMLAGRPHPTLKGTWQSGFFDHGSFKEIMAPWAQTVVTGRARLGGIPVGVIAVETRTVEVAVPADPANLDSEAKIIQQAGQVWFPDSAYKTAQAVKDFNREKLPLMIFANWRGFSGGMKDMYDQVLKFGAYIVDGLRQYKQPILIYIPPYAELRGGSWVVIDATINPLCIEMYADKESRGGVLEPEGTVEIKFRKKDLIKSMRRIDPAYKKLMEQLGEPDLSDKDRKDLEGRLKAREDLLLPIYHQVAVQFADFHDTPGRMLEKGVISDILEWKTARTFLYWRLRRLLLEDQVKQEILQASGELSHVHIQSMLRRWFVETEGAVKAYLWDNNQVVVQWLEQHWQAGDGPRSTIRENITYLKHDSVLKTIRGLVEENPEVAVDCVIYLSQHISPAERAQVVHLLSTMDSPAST
fungal (fACC2), sequence (Q00955 whole entry): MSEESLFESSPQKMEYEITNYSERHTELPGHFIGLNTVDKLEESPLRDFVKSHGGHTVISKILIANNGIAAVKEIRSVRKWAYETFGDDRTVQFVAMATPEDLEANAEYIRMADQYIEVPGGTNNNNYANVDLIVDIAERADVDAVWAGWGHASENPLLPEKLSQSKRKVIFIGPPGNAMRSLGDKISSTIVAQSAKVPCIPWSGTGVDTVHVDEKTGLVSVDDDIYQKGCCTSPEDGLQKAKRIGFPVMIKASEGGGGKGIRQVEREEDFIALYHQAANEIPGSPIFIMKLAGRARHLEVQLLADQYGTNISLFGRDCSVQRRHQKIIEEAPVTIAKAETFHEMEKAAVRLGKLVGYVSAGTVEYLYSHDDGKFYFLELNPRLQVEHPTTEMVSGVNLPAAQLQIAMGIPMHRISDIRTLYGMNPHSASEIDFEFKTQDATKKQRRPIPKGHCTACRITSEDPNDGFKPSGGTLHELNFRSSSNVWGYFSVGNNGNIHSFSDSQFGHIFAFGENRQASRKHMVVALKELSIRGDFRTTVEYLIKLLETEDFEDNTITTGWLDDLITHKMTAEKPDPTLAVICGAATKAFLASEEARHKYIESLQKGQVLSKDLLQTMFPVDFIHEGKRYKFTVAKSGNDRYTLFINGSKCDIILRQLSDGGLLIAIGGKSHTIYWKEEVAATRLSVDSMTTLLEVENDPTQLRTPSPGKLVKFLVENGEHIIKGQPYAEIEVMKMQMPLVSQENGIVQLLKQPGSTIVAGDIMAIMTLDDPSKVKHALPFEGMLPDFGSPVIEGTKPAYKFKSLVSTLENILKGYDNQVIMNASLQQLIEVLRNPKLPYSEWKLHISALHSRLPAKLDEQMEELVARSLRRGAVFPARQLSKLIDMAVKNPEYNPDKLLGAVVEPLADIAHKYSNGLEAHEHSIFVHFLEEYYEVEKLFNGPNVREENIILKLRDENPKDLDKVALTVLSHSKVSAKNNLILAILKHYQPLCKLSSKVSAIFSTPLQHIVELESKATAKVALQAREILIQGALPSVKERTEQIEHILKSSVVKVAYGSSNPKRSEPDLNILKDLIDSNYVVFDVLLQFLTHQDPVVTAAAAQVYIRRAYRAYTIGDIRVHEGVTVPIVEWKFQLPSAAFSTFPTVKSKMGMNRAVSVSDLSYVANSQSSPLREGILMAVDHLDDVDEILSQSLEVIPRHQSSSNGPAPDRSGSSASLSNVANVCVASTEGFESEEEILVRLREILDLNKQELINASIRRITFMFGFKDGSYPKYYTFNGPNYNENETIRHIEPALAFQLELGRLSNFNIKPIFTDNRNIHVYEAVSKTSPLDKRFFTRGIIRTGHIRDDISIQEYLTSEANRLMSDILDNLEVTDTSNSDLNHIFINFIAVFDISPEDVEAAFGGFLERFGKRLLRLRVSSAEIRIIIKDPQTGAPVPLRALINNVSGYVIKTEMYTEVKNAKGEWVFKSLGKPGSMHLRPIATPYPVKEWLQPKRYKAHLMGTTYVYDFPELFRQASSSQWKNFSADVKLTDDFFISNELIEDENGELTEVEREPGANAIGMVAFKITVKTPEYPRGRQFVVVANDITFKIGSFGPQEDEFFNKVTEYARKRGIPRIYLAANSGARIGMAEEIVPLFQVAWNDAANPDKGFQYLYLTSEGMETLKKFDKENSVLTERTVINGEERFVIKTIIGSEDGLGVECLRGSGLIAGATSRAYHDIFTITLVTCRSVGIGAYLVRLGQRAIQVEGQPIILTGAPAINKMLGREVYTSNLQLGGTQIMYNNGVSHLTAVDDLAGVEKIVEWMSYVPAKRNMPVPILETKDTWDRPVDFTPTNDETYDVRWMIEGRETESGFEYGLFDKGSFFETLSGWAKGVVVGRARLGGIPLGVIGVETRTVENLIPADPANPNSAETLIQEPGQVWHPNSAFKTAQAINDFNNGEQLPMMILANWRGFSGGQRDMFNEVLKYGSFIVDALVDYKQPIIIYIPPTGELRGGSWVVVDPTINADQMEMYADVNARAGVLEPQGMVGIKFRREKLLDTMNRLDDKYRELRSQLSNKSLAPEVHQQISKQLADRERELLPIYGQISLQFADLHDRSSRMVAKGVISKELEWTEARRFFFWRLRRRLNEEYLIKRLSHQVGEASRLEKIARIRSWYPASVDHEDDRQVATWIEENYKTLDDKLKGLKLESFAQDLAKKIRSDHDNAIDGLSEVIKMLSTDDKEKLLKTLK

Compound	IC50 (human (hACC2); Table 2a) [nM]	IC50 (human (hACC2); Table 2b, additional results) [nM]	MIC (C. krusei; [4]) [µg/mL]	MIC (C. krusei; [5]) [µg/mL]	MIC (C. parapsilosis; [6]) [µg/mL]	MIC (C. parapsilosis; [7]) [µg/mL]	IC90 (Botrtyis cinerea (Bc); [8]) [µg/mL]	IC90 (Botrtyis cinerea (Bc); [9]) [µg/mL]	Concentration at 90% Inhibition Fm [1, 10]	IC90 [1] [µg/mL]	IC90 [2, 11] [µg/mL]	IC90 [2, 12] [µg/mL]	IC90 [3, 13] [µg/mL]	IC90 [3, 14] [µg/mL]	IC90 (Rhizoctonia solani (Rs); [15]) [µg/mL]	IC90 (Rhizoctonia solani (Rs); [16]) [µg/mL]	IC90 (Septoria tritici (St); [17]) [µg/mL]	IC90 (Septoria tritici (St); [18]) [µg/mL]	other results
COc1ccc(F)cc1[C@H](Cn1c(=O)n(C(C)(C)C(=O)NC(C)C)c(=O)c2c(C)c(-n3nccn3)sc21)OC(C)C [Compound I-4, (R)-2-(1-(2-(5-fluoro-2-methoxyphenyl)-2-isopropoxyethyl)-5-methyl-2,4-dioxo-6-(2H-1,2,3-triazol-2-yl)-1,4-dihydrothieno[2,3-d]pyrimidin-3(2H)-yl)-N-isopropyl-2-methylpropanamide]	5 to 10	5 to 10	0.25 to 1 (≈ 0.426 to 1.7 µM)	0.25 to 1 (≈ 0.426 to 1.7 µM)	0.25 to 1 (≈ 0.426 to 1.7 µM)	1.01 to 2 (≈ 1.72 to 3.41 µM)	0.08 (≈ 0.136 µM)	0.08 (≈ 0.136 µM)	AA (compound concentration of 0.08 ppm at 90% inhibition of fungal pathogens)	0.08 (≈ 0.136 µM)	0.4 (≈ 0.682 µM)	0.4 (≈ 0.682 µM)	> 50	> 50	0.08 (≈ 0.136 µM)	0.08 (≈ 0.136 µM)	2 (≈ 3.41 µM)	10 (≈ 17 µM)	IC50 (fungal (fACC2); Table 2a): 1 to 5 nM; IC50 (fungal (fACC2); Table 2b, additional results): 1 to 5 nM
COc1ccc(F)cc1[C@H](Cn1c(=O)n(C(C)(C)C(=O)NC(C)C)c(=O)c2c(C)c(-n3nccn3)sc21)OC1CCC(=O)CC1 [Compound I-32, (R)-2-(1-(2-(5-fluoro-2-methoxyphenyl)-2-((4-oxocyclo-hexyl)oxy)ethyl)-5-methyl-2,4-dioxo-6-(2H-1,2,3-triazol-2-yl)-1,4-dihydro-thieno[2,3-d]pyrimidin-3(2H)-yl)-N-isopropyl-2-methylpropanamide]	5 to 10	5 to 10	0.06 to 0.24 (≈ 0.0936 to 0.375 µM)	0.06 to 0.249 (≈ 0.0936 to 0.389 µM)	0.25 to 1 (≈ 0.39 to 1.56 µM)	0.25 to 1 (≈ 0.39 to 1.56 µM)	0.08 (≈ 0.125 µM)	0.08 (≈ 0.125 µM)	AA (compound concentration of 0.08 ppm at 90% inhibition of fungal pathogens)	0.08 (≈ 0.125 µM)	0.4 (≈ 0.624 µM)	0.4 (≈ 0.624 µM)	> 50	> 50	0.08 (≈ 0.125 µM)	0.08 (≈ 0.125 µM)	> 50	> 50	–
COc1ccc(F)cc1[C@H](Cn1c(=O)n(C(C)(C)C(=O)N2CCCC2)c(=O)c2c(C)c(-n3nccn3)sc21)OC1CCC(=O)CC1 [Compound I-33, (R)-1-(2-(5-fluoro-2-methoxyphenyl)-2-((4-oxocyclo-hexyl)oxy)ethyl)-5-methyl-3-(2-methyl-1-oxo-1-(pyrrolidin-1-yl)propan-2-yl)-6-(2H-1,2,3-triazol-2-yl)thieno[2,3-d]pyrimidine-2,4(1H,3H)-dione]	10 to 40	10 to 40	–	–	–	–	–	–	–	–	–	–	–	–	–	–	–	–	MIC (C. krusei; Table 3a, ATCC 6258, 3 replicates, MIC recorded at 48 h, read-out: MIC, C. krusei ATCC 6258): 0.25 to 1 µg/mL (≈ 0.383 to 1.53 µM); MIC (C. krusei; Table 3b (additional results), ATCC 6258, 3 replicates, MIC recorded at 48 h, read-out: MIC, C. krusei ATCC 6258): 0.25 to 1 µg/mL (≈ 0.383 to 1.53 µM); MIC (C. parapsilosis; Table 3a, ATCC 22019, 3 replicates, MIC recorded at 48 h, read-out: MIC, C. parapsilosis ATCC 22019): 0.25 to 1 µg/mL (≈ 0.383 to 1.53 µM); MIC (C. parapsilosis; Table 3b (additional results), ATCC 22019, 3 replicates, MIC recorded at 48 h, read-out: MIC, C. parapsilosis ATCC 22019): 1.01 to 2 µg/mL (≈ 1.55 to 3.06 µM); IC90 (Botrtyis cinerea (Bc); Botrtyis cinerea, growth inhibition at 48 hours vs 2% DMSO control, read-out: Concentration at 90% Inhibition Bc): 0.4 µg/mL (≈ 0.613 µM); IC90 (Botrtyis cinerea (Bc); Botrtyis cinerea, growth inhibition vs 2% DMSO control at 48 hours, read-out: Concentration at 90% Inhibition Bc): 0.4 µg/mL (≈ 0.613 µM); IC90 [1, 10]: 0.08 µg/mL (≈ 0.123 µM); IC90 ([1]; Fusarium moniliforme, growth inhibition vs 2% DMSO control at 48 hours): 0.08 µg/mL (≈ 0.123 µM); IC90 ([2]; growth inhibition at 48 hours vs 2% DMSO control, read-out: Concentration at 90% Inhibition Fv): 0.4 µg/mL (≈ 0.613 µM); IC90 ([2]; growth inhibition vs 2% DMSO control at 48 hours, read-out: Concentration at 90% Inhibition Fv): 0.4 µg/mL (≈ 0.613 µM); IC90 ([3]; growth inhibition at 48 hours vs 2% DMSO control, read-out: Concentration at 90% Inhibition Pc): > 50 µg/mL; IC90 ([3]; growth inhibition vs 2% DMSO control at 48 hours, read-out: Concentration at 90% Inhibition Pc): > 50 µg/mL; IC90 (Rhizoctonia solani (Rs); mycelial plugs, growth inhibition at 48 hours vs 2% DMSO control, read-out: Concentration at 90% Inhibition Rs): 0.4 µg/mL (≈ 0.613 µM); IC90 (Rhizoctonia solani (Rs); mycelial plugs, growth inhibition vs 2% DMSO control at 48 hours, read-out: Concentration at 90% Inhibition Rs): 0.4 µg/mL (≈ 0.613 µM); IC90 (Septoria tritici (St); Septoria tritici, growth inhibition at 48 hours vs 2% DMSO control, read-out: Concentration at 90% Inhibition St): > 50 µg/mL; IC90 (Septoria tritici (St); Septoria tritici, growth inhibition vs 2% DMSO control at 48 hours, read-out: Concentration at 90% Inhibition St): > 50 µg/mL
